Legend:
G361 cells = experiment: Matrigel-invasion assay, G361 cells; type: cell-based; details: γ-T3 at IC50 and IC85
Procedure: (§1) 1.1.4 Matrigel-invasion assay—Matrigel-invasion assay was performed according to a previously published method with modifications. Briefly, cells were pre-incubated in a serum-free RPMI 1640 medium with or without γ-T3 isomers for 24 hrs. Cells (2.5×10^5) resuspended in 500 μl of serum-free RPMI 1640 containing 0.1% bovine serum albumin (BSA) were then added to the upper chamber of a 8 μm pore size insert (Millipore, Bedford, Mass.) manually coated with Matrigel (0.5 mg/ml) (BD Bioscience, Bedford, Mass.). Five hundred μl of invasion buffer containing fibronectin (10 μg/ml) and RPMI 1640 supplemented with 10% FCS were added in the lower chamber as a chemo-attractant. Cells were incubated at 37° C. for 24 hrs in 5% CO2 humidified conditions. At the end of incubation period, inserts were stained with Diff-Quick staining solution (Fischer Scientific). Non-invaded cells on the inside of the insert were scraped off with a cotton swab. Cell invasions were then examined by a phase-contrast microscope. The invaded cells were extracted using extraction buffer (Millipore, Bedford, Mass.) and the cell number was estimated based on absorbance at 595 nm.

PC-3 cells [1] = experiment: Matrigel-invasion assay, PC-3 cells; type: cell-based, human; details: γ-T3 at IC50, 24 hrs
Procedure: as §1
2.1.4 Flow cytometry was carried out as described above under item 1.1.3. Matrigel-invasion assay was carried out as described above under item 1.1.4. Western blotting was carried out as described above under item 1.1.5.

PC-3 cells [2] = experiment: Spheroid (prostasphere) formation assay, PC-3 cells; type: cell-based; details: 5 μg/ml, untreated average 21 per well
Procedure: 5.1.7 Spheroid formation assay—Spheroid formation assay was performed with a protocol modified from previous study (Folkins C, p3560). Briefly, cells were first trypsinized, washed with 1× PBS and resuspended in DMEM F12 medium. Two hundred cells were added into each well of a 24-well-plate pre-coated with polyHEMA (Sigma, St. Louis, Mo.). Cells will be grown in DMEM/F12 mem (Invitrogen, Carlsbad, Calif.) supplemented with 4 μg/mL insulin (Sigma, St. Louis, Mo.), B27 (Invitrogen, Carlsbad, Calif.), 20 ng/mL EGF (Sigma, St. Louis, Mo.), and 20 ng/mL basic FGF (Invitrogen, Carlsbad, Calif.). Fresh medium with the above supplements was added every day. γ-T3 was added at indicated time points and the number of spheroids was counted at day 14 of the assay or at the end of the treatment. Each experiment was repeated in triplicates and each data point represented the mean and standard derivation.

PC-3-luc cells = experiment: Orthotopic PC-3 xenograft model (tumorigenicity of pre-treated cells); type: in vivo, CB-17 SCID mice; details: cells pre-treated with 5 μg/ml for 24 hrs; two weeks after implantation
Procedure: 5.1.9 Orthotopic PC-3 xenograft model—The orthotopic model was established with procedures known in the art. Briefly, 8-week-old CB-17 SCID mice were anesthetized and placed under a dissecting microscope (Olympus, Tokyo, Japan). An incision at the midline of abdomen was made and the dorsal prostate was exposed at the base of the bladder. Equal amount of viable PC3-luc cells (2.6×10^4 cells resuspended in 5 μl of serum free RPMI) with or without prior γ-T3 treatment for 24 hrs were injected into the dorsal prostates of the mice. Organs were replaced and the abdomen was closed. To detect the bioluminescent signal of the cells, mice were anesthetized and then injected with 80 mg/kg of D-luciferin solution by i.p. (Xenogen Corporation, Cranbury, N.J.). Signal was captured by Xenogen IVIS 100 series imaging system. Tumors progression was monitored by measuring the bioluminescent signal (units of photons per second per unit area) every 2 weeks until 6-week post tumor implantation. Mice were sacrificed by cervical dislocation and tumors were collected and fixed in 10% formalin. All surgical and animal handling procedures were carried out according to the guidelines of the Committee on the Use of Live Animals in Teaching and Research (CULATR), The University of Hong Kong.

[3] = test system: prostate intraepithelial neoplasia (PIN); experiment: Prevention of prostate intraepithelial neoplasia (PIN) in prostate cancer mouse models; type: in vivo; details: fed mice, FIG. 8
Procedure: For experiments, 5-week old prostate cancer mouse models previously published (Gabril, M. Y., Duan, W., et al., Molecular Therapy (2005), vol. 11, no. 3, p. 348; Greenberg et al., Proc Natl Acad Sci USA (1995), vol. 92, pp. 3439-3443; Duan, W., Gabril, M. Y., et al., Oncogene (2005) 24, 1510-1524; Wang S, Gao J, et al., Cancer Cell., 2003, vol. 4, no. 3, pp. 209-21; Gabril, M. Y., Onita, T., et al., Gene Ther., 2002, vol. 9, no. 23, pp. 1589-99) are used. All animal experiments were conducted according to standard protocols approved by Animal Care Committee. Genotyping was performed in PSP-TGMAP, and KIMAP mice were identified by a quick PCR genotyping protocol as previously reported (see above references referred to under item 6).
In one exemplary experiment, the animals are given 1 mg of gamma tocotrienol per day for 30 weeks via oral gavage. At the end of 10, 20 and 30 weeks, animals are sacrificed. The prostate along with the male accessory glands, i.e., the ventral and dorsolateral prostate lobes, seminal vesicles, and coagulation gland, were dissected out separately for histopathological characterization of prostate tumor development, prostate intraepithelial neoplasia (PIN) development and microinvasion. […]

With `CC(C)=CCC/C(C)=C/CC/C(C)=C/CCC1(C)CCc2cc(O)c(C)c(C)c2O1` (centres unmarked) [γ-T3, 7,8-dimethyltocotrienol] the “invasion capability compared to untreated control” value (G361 cells) was 2 -time lower, the “invasion capability compared to untreated control” value (PC-3 cells [1]) was “at least 2.5 -time lower” and the prostasphere formation (PC-3 cells [2]) was “no prostasphere”. The “mice that failed to develop visible tumor” value (PC-3-luc cells) was 5 out of 7 and the “development of prostate intraepithelial neoplasia (PIN)” value [3] was “prevent the formation of prostate intraepithelial neoplasia (PIN)”.
